Laboratory results taken from US20090029943A1, “Glucosamine and Derivatives Thereof Useful as TG Inhibitors” (priority 2005, published 2009).
Entries after “also recorded” stand apart in the source; their conditions may differ.

Legend:
[1] = target: T1, purified transglutaminase enzyme (Sigma T5398) (UniProt P08587); test: In vitro assay for inhibition of transglutaminase activity (14C-putrescine incorporation into succinylated casein); type: biochemical; conditions: glucosamine 1, or 100 mM; 37° C., 1 hour; FIG. 2
T1 construct: purchased Sigma T5398
T1 sequence (P08587 1-690): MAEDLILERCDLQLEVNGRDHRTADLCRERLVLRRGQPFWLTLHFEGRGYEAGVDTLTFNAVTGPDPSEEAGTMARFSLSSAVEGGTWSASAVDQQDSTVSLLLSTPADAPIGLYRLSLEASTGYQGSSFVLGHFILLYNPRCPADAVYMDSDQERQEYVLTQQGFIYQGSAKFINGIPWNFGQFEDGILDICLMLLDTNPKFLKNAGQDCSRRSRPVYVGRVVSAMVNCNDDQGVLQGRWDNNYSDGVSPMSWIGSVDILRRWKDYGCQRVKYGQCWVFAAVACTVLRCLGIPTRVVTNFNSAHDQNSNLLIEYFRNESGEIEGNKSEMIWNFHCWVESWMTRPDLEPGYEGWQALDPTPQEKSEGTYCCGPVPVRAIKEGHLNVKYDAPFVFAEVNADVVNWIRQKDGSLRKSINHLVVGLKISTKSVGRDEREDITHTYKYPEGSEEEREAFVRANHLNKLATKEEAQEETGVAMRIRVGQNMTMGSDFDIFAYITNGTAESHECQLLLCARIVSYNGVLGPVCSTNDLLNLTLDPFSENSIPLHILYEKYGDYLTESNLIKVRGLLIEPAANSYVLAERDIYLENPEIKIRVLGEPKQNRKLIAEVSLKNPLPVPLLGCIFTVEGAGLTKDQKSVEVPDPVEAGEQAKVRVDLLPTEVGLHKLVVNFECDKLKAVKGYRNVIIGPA
Procedure: Consequently, glucosamine and derivatives thereof are transglutaminase inhibitors.
In the presence of various concentrations of […], which competes with putrescine, the reaction between [1,4-^14C] putrescine and succinylated casein, catalyzed by transglutaminase, was observed.
A reaction buffer (0.5 ml) was prepared as follows: 0.1 M triacetate pH 7.5, 1% succinylated casein, 1 mM EDTA, 10 mM CaCl2, 0.5% lubrol PX, 5 mM DTT, 0.15 M NaCl and 0.5 mCi [1,4-^14C] putrescine (Dupont-New England Nuclear; 118 Ci/mole). To this reaction buffer were added 2 μl of a purified transglutaminase enzyme (Sigma T5398), glucosamine and a 50 mM Tris-acetate buffer so as to yield a final volume of 100 μl, having a glucosamine concentration of 1, or 100 mM. Mixing was followed by reaction at 37° C. for 1 hour before termination with 4.5 ml of cold (4° C.) 7.5% TCA. The TCA-precipitates thus formed were filtered through a GF/glass fiber filter, washed with 10 volumes of 5% TCA and dried, followed by measuring transglutaminase-catalyzed ^14C-putrescine-labelled casein with a β-counter.
The relative inhibition activities (%) of glucosamine against transglutaminase are depicted in FIG. 2.

[2] = system: iNOS (NF-kB-inducible) in LPS-activated BV2 microglia; test: iNOS Western blotting in LPS-activated BV2 microglia cells; type: cell-based, murine; conditions: LPS 100 ng/ml 24 hrs; glucosamine 1, 10 or 100 mM; FIG. 3A
Procedure: The inhibitory effects of glucosamine on transglutaminase were determined by monitoring the activity of the transcriptional factor NF-kB through the measurement of level of NF-kB-inducible iNOS.
The cells were maintained in DMEM (Dulbecco's Modified Eagle's medium) (Invitrogen) supplemented with 10% fetal bovine serum and penicillin/streptomycin in a 5% CO2, 37° C. incubator. BV-2 was activated by treatment with LPS (100 ng/ml; Sigma) for 24 hrs.
In order to detect the intracellular activity of transglutaminase, the cells were incubated for 24 hrs in a medium supplemented with 4.5 nmoles of ^14C-putrescine (1.11×10^6 dpm)/ml. Cells were grouped according to treatment without or with 1, 10 or 100 mM of glucosamine. Following LPS treatment for 24 hrs, cells in each group were homogenized with a radioimmunoprecipitation assay buffer (1×PBS, 1% Nonidet P-40, 0.5% sodium deoxycholate and 0.1% SDS) containing a protease inhibitor. The homogenates were centrifuged at 100,000×g for 1 hr. and the supernatants were subjected to iNOS Western blotting.
After being separated from a 10˜20% gradient SDS gel using Tricine buffer (Invitrogen), the Western blotting samples were transferred onto polyvinylidene difluoride membrane (Invitrogen). Western blotting was conducted as usual. […]

[3] = target: T2, transglutaminase in LPS-activated microglia cells (Mus musculus, UniProt P21981); test: Intracellular transglutaminase activity in LPS-activated BV2 microglia (14C-putrescine incorporation); type: cell-based, murine; conditions: LPS 24 hrs; glucosamine 1, 10 or 100 mM; FIG. 3B
T2 construct: In order to detect the intracellular activity of transglutaminase, the cells were incubated for 24 hrs; endogenous in cells
T2 sequence (P21981 1-686): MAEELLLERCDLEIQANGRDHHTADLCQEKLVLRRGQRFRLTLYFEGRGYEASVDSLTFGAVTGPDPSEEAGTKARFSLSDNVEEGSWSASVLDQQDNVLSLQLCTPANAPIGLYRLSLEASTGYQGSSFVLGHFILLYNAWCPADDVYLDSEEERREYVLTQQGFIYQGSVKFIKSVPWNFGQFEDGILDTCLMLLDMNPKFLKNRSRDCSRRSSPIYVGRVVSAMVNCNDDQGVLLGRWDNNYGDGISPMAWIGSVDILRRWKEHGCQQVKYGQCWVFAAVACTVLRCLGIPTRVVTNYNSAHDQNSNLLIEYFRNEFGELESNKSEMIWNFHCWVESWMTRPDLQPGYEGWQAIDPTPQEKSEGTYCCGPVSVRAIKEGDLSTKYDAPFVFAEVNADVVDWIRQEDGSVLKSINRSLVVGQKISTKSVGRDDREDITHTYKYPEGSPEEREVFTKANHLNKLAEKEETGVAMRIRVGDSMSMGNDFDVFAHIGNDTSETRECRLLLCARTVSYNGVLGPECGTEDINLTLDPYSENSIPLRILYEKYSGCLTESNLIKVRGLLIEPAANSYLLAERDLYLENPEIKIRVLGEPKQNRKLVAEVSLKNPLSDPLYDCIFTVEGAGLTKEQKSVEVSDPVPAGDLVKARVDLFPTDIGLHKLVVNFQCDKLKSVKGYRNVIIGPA

[4] = system: transglutaminase in SH-SY5Y/TG cells (I-κBα level); test: I-κBα Western blotting in SH-SY5Y/TG neuroblastoma cells; type: cell-based, human; conditions: 10 mM glucosamine, 3 hrs, cytosol fraction; FIG. 4A
Procedure: For use in the transfection of transglutaminase, the human neuroblastoma cell SH-SY5Y was purchased from American Type Culture Collection. SH-SY5Y was cultured in DMEM (Dulbecco's modified Eagle's Medium)/Ham F12 medium (50:50) supplemented with 10% heat-inactivated fetal bovine serum, glutamine, and penicillin/streptomycin. In order to avoid clonal mutation, an Flp-In™ system (Invitrogen, Co) was introduced. SH-SY5Y transformed with a mock vector was used as a […] (Wild) while a full-length transglutaminase gene was cloned in a pcDNA5/FRT vector to prepare SH-SY5Y/TG. Allowing NF-kB to be usually active therein (J. Biol. Chem. 279, 53725-53735, 2004), the strain thus constructed is widely used as an NF-kB activation model based on the overexpression of transglutaminase. […] The inhibitory effects of putative transglutaminase inhibitors were investigated by incubating SH-SY5Y/TG cells in the presence of 10 mM glucosamine (GM), 200 μM cystamine (CTM), and 2 nM iodoacetamide (IAA) for 3 hrs, followed by obtaining cytosol fractions with the aid of a nuclear extraction kit (Sigma) from the cells. As a negative control, a cytosol fraction obtained from a cell culture incubated in the absence of any transglutaminase inhibitor was used (Ct). […]

## N[C@H]1C(O)O[C@H](CO)[C@@H](O)[C@@H]1O (stereo partly shown) [glucosamine]
[1]
  activity of transglutaminase (relative inhibition activity): poorer activity of transglutaminase; also recorded: inhibited in a glucosamine dose-dependent manner
[2]
  level of expression of iNOS: reduces the level of expression of iNOS
[3]
  activity of transglutaminase in LPS-activated microglia: inhibited in a glucosamine dose-dependent manner
[4]
  transglutaminase inhibition shown by level of expression of I-κBα: identified as a transglutaminase inhibitor
